According to article doi:10.1101/2025.05.30.657074, “A covalent recognition strategy enables conspecific mate identification” (bioRxiv, 2025):

Tests used:
[1] = target: OR3_F159A (Bombyx mori, UniProt Q5FBE0, F159A); test: GCaMP6 calcium flux assay, BmOR3/Orco mutant F159A; type: cell-based
Excerpt: (§1) The first insect pheromone system characterized at the molecular level is that of Bombyx mori, a moth long known to navigate towards its mate guided solely by pheromone cues with impressive navigation accuracy. Two PR/Orco complexes, BmOR1/BmOrco and BmOR3/BmOrco, have been linked to the behavioral responses to pheromones in B. mori (Figure 1A). The conspecific pheromone, bombykol, is detected through BmOR1/Orco and leads to sexual attraction. The heterospecific pheromone, bombykal, is sensed through BmOR3/Orco, and leads to suppression of mating behavior. We first characterized the extent to which both PR/Orco complexes are selective towards their cognate ligands. We used a previously established calcium flux functional assay where we co-transfected HEK293 cells with either BmOR1 or BmOR3, along with the coreceptor, BmOrco (here on referred to as Orco), and the fluorescent calcium reporter, GCaMP6 (Figure 1C). In this assay, ligand-activation of the heteromeric ion channel complexes by addition of either bombykol or bombykal leads to calcium influx, read out as GCaMP6 fluorescence changes that can be monitored in real-time and dose-dependent manner using a fluorescence plate reader. […]
(§2) HEK293T cells were maintained at 37°C with 5% carbon dioxide and grown in high glucose DMEM enhanced with 10% FBS and 1% GlutaMAX (Gibco). […] Cells were kept at 37°C for 18-20 hours before being used for fluorescence plate reading. […]
(§3) On the day of the GCaMP6 assay, Bravo (Agilent), a versatile liquid handler was used to prepare both the odorant plate and the assay plate (transfected cell plate) prior to the fluorescence readout using the FDSS/µcell kinetic plate Imager (Hamamatsu, C13299).
(§4) For the odorant plate, the DMSO dissolved stock solutions were diluted in 19.8 µL of Reading buffer (20 mM HEPES/NaOH (pH 7.4), 1× HBSS (Gibco), 3 mM Na2CO3, 1 mM MgSO4, and 5 mM CaCl2) to give a final concentration ranging from 3.16 nM to 1 mM with 1% DMSO. […]
(§5) The kinetics of the fluorescence change upon odorant addition were measured using the FDSS/µcell kinetic plate Imager (Hamamatsu, C13299). […]

[2] = target: OR3_C215S (Bombyx mori, UniProt Q5FBE0, C215S); test: GCaMP6 calcium flux assay, BmOR3/Orco mutant C215S; type: cell-based
Sequence of OR3_C215S (Q7YT34 entry or part of it, stated change not applied): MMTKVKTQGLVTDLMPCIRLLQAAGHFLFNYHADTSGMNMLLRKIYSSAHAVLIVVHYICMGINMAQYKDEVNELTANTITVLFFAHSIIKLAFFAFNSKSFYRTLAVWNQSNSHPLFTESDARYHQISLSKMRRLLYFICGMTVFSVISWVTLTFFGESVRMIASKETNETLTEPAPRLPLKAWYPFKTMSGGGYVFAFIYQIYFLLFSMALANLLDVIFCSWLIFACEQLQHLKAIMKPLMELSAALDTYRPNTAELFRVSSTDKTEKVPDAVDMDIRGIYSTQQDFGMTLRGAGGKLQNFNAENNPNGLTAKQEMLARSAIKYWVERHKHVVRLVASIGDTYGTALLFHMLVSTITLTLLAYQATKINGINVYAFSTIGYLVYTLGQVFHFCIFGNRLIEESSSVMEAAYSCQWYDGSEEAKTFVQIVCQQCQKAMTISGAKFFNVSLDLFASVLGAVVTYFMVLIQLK
Sequence of OR3_C215S (Q5FBE0 entry or part of it C215S): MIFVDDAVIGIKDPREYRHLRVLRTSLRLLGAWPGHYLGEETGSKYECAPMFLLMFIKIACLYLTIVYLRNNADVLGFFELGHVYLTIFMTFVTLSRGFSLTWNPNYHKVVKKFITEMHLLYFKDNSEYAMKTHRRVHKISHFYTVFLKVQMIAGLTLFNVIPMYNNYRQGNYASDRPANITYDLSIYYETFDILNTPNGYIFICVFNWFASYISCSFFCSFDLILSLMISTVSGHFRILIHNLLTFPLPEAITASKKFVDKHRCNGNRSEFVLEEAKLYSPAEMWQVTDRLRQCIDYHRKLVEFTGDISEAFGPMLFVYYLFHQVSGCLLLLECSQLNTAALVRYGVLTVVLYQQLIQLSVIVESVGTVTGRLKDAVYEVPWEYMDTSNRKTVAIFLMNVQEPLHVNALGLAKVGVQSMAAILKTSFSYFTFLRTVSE
Excerpt: as §1, §2, §3, §4, §5

[3] = target: BmOR3/Orco (Bombyx mori, UniProt Q5FBE0); test: GCaMP6 calcium flux assay, wild-type BmOR3/Orco; type: cell-based
Sequence of BmOR3/Orco (Q5FBE0 entry or part of it): as the sequence (Q5FBE0 entry or part of it C215S) above, with S215C counted along it
Sequence of BmOR3/Orco (Q7YT34 entry or part of it, further chain): as the sequence (Q7YT34 entry or part of it, stated change not applied) above
Excerpt: (§6) The first insect pheromone system characterized at the molecular level is that of Bombyx mori, a moth long known to navigate towards its mate guided solely by pheromone cues with impressive navigation accuracy. Two PR/Orco complexes, BmOR1/BmOrco and BmOR3/BmOrco, have been linked to the behavioral responses to pheromones in B. mori (Figure 1A). The conspecific pheromone, bombykol, is detected through BmOR1/Orco and leads to sexual attraction. The heterospecific pheromone, bombykal, is sensed through BmOR3/Orco, and leads to suppression of mating behavior. We first characterized the extent to which both PR/Orco complexes are selective towards their cognate ligands. We used a previously established calcium flux functional assay where we co-transfected HEK293 cells with either BmOR1 or BmOR3, along with the coreceptor, BmOrco (here on referred to as Orco), and the fluorescent calcium reporter, GCaMP6 (Figure 1C). In this assay, ligand-activation of the heteromeric ion channel complexes by addition of either bombykol or bombykal leads to calcium influx, read out as GCaMP6 fluorescence changes that can be monitored in real-time and dose-dependent manner using a fluorescence plate reader. […] But we also found both PR/Orco complexes to be somewhat promiscuous: both complexes are activated by their non-cognate pheromones (bombykal for BmOR1/Orco and bombykol for BmOR3/Orco) with a response that is ~10 fold smaller than their cognate pheromones. […] Instead, two complexes with reciprocal specificities enable an unequivocal response to bombykal and bombykol across all concentrations, ensuring the behavioral accuracy needed for mate selection.
(§7) The assay was performed similarly to method descriptions in previous studies.
(§8) All DNA constructs used in this assay were cloned into a modified pME18 vector that contains a SV40 promotor.
(§9) Each transfection condition (per well) contained a total of 300 ng of plasmids in 1:1:1 ratio of the GCaMP6, Orco, and the corresponding OR plasmid that was diluted in 4.8 uL of OptiMEM (Gibco) along with 0.1 uL of P3000. The mixture was incubated for 5 minutes and then further incubated for 20 minutes after being mixed with Lipofectamine 3000 (Invitrogen) diluted in OptiMEM. This mixture was scaled accordingly to batch transfect 50-100 wells per construct per plate.
(§10) HEK293T cells were maintained at 37°C with 5% carbon dioxide and grown in high glucose DMEM enhanced with 10% FBS and 1% GlutaMAX (Gibco). Cells were detached with TrypLE Express Enzyme and resuspended in FluoroBrite DMEM (Gibco) with 10% FBS and 1% GlutaMAX (Gibco) to a concentration of 5 × 10^5 cells/ml. Cells were combined with each transfection condition and added to 2x16 wells of a 384-well plate (Grenier CELLSTAR). Cells were kept at 37°C for 18-20 hours before being used for fluorescence plate reading.
(§11) Odorant plates were prepared using D300e (Hewlett Packard), a digital, non-contact dispenser. Briefly, stock solutions of bombykol and bombykal were prepared in DMSO and plated onto 384-plates (Greiner, Catalog #784201) in a titrating volume to obtain a concentration series ranging between 316 nM and 100 mM with a final volume of 0.2 µL.
(§12) The odorant plates were kept at −20 °C until usage.
as §3
(§13) For the odorant plate, the DMSO dissolved stock solutions were diluted in 19.8 µL of Reading buffer (20 mM HEPES/NaOH (pH 7.4), 1× HBSS (Gibco), 3 mM Na2CO3, 1 mM MgSO4, and 5 mM CaCl2) to give a final concentration ranging from 3.16 nM to 1 mM with 1% DMSO. For the cell plate, the FluoroBrite DMEM (Gibco) was exchanged out with the […]
as §5

[4] = target: OR3_K58A (Bombyx mori, UniProt Q5FBE0, K58A); test: GCaMP6 calcium flux assay, BmOR3/Orco mutant K58A; type: cell-based
Sequence of OR3_K58A (Q5FBE0 entry or part of it K58A): as the sequence (Q5FBE0 entry or part of it C215S) above, with K58A, S215C counted along it
Sequence of OR3_K58A (Q7YT34 entry or part of it, stated change not applied, further chain): as the sequence (Q7YT34 entry or part of it, stated change not applied) above
Excerpt: as §6, §7, §8, §9, §10, §11, §12, §3, §13, §5

[5] = system: B. mori male moths; design: method as in PMID 24744736, PMID 22836825; conditions: conspecific male moths; cited from earlier work
[6] = target: OR3_K58S (Bombyx mori, UniProt Q5FBE0, K58S); test: GCaMP6 calcium flux assay, BmOR3/Orco mutant K58S; type: cell-based
Sequence of OR3_K58S (Q5FBE0 entry or part of it K58S): as the sequence (Q5FBE0 entry or part of it C215S) above, with K58S, S215C counted along it
Sequence of OR3_K58S (Q7YT34 entry or part of it, stated change not applied, further chain): as the sequence (Q7YT34 entry or part of it, stated change not applied) above
Excerpt: as §6, §7, §8, §9, §10, §11, §12, §3, §13, §5

[7] = target: OR3_V352A (Bombyx mori, UniProt Q5FBE0, V352A); test: GCaMP6 calcium flux assay, BmOR3/Orco mutant V352A; type: cell-based
Sequence of OR3_V352A (Q5FBE0 entry or part of it V352A): as the sequence (Q5FBE0 entry or part of it C215S) above, with S215C, V352A counted along it
Sequence of OR3_V352A (Q7YT34 entry or part of it, stated change not applied, further chain): as the sequence (Q7YT34 entry or part of it, stated change not applied) above
Excerpt: as §1, §2, §3, §4, §5

[8] = target: OR3_K58Q (Bombyx mori, UniProt Q5FBE0, K58Q); test: GCaMP6 calcium flux assay, BmOR3/Orco mutant K58Q; type: cell-based
Sequence of OR3_K58Q (Q5FBE0 entry or part of it K58Q): as the sequence (Q5FBE0 entry or part of it C215S) above, with K58Q, S215C counted along it
Sequence of OR3_K58Q (Q7YT34 entry or part of it, stated change not applied, further chain): as the sequence (Q7YT34 entry or part of it, stated change not applied) above
Excerpt: as §6, §7, §8, §9, §10, §11, §12, §3, §13, §5

[9] = target: OR3_C215A (Bombyx mori, UniProt Q5FBE0, C215A); test: GCaMP6 calcium flux assay, BmOR3/Orco mutant C215A; type: cell-based
Sequence of OR3_C215A (Q5FBE0 entry or part of it C215A): as the sequence (Q5FBE0 entry or part of it C215S) above, with S215A counted along it
Sequence of OR3_C215A (Q7YT34 entry or part of it, stated change not applied, further chain): as the sequence (Q7YT34 entry or part of it, stated change not applied) above
Excerpt: as §1, §2, §3, §4, §5

[10] = target: OR3_L349A (Bombyx mori, UniProt Q5FBE0, L349A); test: GCaMP6 calcium flux assay, BmOR3/Orco mutant L349A; type: cell-based
Sequence of OR3_L349A (Q7YT34 entry or part of it, stated change not applied): as above
Sequence of OR3_L349A (Q5FBE0 entry or part of it L349A): as the sequence (Q5FBE0 entry or part of it C215S) above, with S215C, L349A counted along it
Excerpt: as §1, §2, §3, §4, §5

[11] = target: OR3_L353A (Bombyx mori, UniProt Q5FBE0, L353A); test: GCaMP6 calcium flux assay, BmOR3/Orco mutant L353A; type: cell-based
Sequence of OR3_L353A (Q5FBE0 entry or part of it L353A): as the sequence (Q5FBE0 entry or part of it C215S) above, with S215C, L353A counted along it
Sequence of OR3_L353A (Q7YT34 entry or part of it, stated change not applied, further chain): as the sequence (Q7YT34 entry or part of it, stated change not applied) above
Excerpt: as §1, §2, §3, §4, §5

[12] = target: BmOR1/Orco (Bombyx mori, UniProt Q5WA61); test: GCaMP6 calcium flux assay, wild-type BmOR1/Orco; type: cell-based
Sequence of BmOR1/Orco (Q7YT34 entry or part of it): as the sequence (Q7YT34 entry or part of it, stated change not applied) above
Sequence of BmOR1/Orco (Q5WA61 entry or part of it): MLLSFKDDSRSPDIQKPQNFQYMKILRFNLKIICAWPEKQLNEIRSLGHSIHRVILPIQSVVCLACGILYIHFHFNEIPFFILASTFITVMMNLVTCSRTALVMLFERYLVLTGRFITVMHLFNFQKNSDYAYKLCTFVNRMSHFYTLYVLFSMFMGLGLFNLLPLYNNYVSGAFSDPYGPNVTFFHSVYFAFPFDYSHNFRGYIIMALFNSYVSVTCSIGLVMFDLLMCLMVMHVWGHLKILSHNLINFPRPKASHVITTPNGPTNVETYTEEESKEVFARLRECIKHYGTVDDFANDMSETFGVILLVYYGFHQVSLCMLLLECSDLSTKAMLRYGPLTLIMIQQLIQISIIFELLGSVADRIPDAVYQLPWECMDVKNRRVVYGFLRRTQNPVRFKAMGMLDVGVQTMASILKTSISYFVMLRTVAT
Excerpt: as §6, §7, §8, §9, §10, §11, §12, §3, §13, §5

[13] = target: OR3_V348A (Bombyx mori, UniProt Q5FBE0, V348A); test: GCaMP6 calcium flux assay, BmOR3/Orco mutant V348A; type: cell-based
Sequence of OR3_V348A (Q7YT34 entry or part of it, stated change not applied): as the sequence (Q7YT34 entry or part of it, stated change not applied) above
Sequence of OR3_V348A (Q5FBE0 entry or part of it V348A): as the sequence (Q5FBE0 entry or part of it C215S) above, with S215C, V348A counted along it
Excerpt: as §1, §2, §3, §4, §5

Sequence of OR3_F159A (Q5FBE0 entry or part of it F159A): as the sequence (Q5FBE0 entry or part of it C215S) above, with F159A, S215C counted along it
Sequence of OR3_F159A (Q7YT34 entry or part of it, stated change not applied, further chain): as the sequence (Q7YT34 entry or part of it, stated change not applied) above

## CCC/C=C\C=C\CCCCCCCCC=O [Bombykal, bombykal]
[1]
  EC50: 12.6 µM
[1]; OR3_F159A
  Hill Coefficient (n± SE): 4 ± 2
  Max (ΔF/F ± SE): 0.16 ± 0.02 ΔF/F
[2]
  EC50: 1.26 µM
[2]; OR3_C215S
  Hill Coefficient (n± SE): 1.09 ± 0.07
  Max (ΔF/F ± SE): 0.82 ± 0.05 ΔF/F
[3]; EC50, HEK293 cells co-transfected with BmOR3, BmOrco, GCaMP6
  EC50: 0.16 µM
[3]; Mean (-log EC50 ± SE), wild-type BmOR3/Orco
  EC50: 0.162 µM
[3]; wild-type BmOR3/Orco
  Hill Coefficient (n± SE): 1.12 ± 0.08
[3]; wild-type BmOR3/Orco, ΔF/F at highest ligand concentration
  Max (ΔF/F ± SE): 0.98 ± 0.05 ΔF/F
[4]
  EC50: 15.8 µM
[4]; OR3_K58A
  Hill Coefficient (n± SE): 0.8 ± 0.2
  Max (ΔF/F ± SE): 0.18± 0.03 ΔF/F
[5]
  behavioral response: suppresses mating behavior
[6]
  EC50: 13.8 µM
[6]; OR3_K58S
  Hill Coefficient (n± SE): 1.2 ± 0.2
  Max (ΔF/F ± SE): 0.36 ± 0.03 ΔF/F
[7]
  EC50: 0.537 µM
[7]; OR3_V352A
  Hill Coefficient (n± SE): 1.9 ± 0.2
  Max (ΔF/F ± SE): 0.63 ± 0.03 ΔF/F
[8]
  EC50: 10.2 µM
[8]; OR3_K58Q
  Hill Coefficient (n± SE): 1.3 ± 0.1
  Max (ΔF/F ± SE): 0.68 ± 0.02 ΔF/F
[9]
  EC50: 3.16 µM
[9]; OR3_C215A
  Hill Coefficient (n± SE): 1.4 ± 0.3
  Max (ΔF/F ± SE): 0.82 ± 0.03 ΔF/F
[10]
  EC50: 3.39 µM
[10]; OR3_L349A
  Hill Coefficient (n± SE): 5 ± 3
  Max (ΔF/F ± SE): 0.48 ± 0.04 ΔF/F
[11]
  EC50: 0.501 µM
[11]; OR3_L353A
  Hill Coefficient (n± SE): 1.3 ± 0.2
  Max (ΔF/F ± SE): 0.91 ± 0.04 ΔF/F
[12]; EC50, HEK293 cells co-transfected with BmOR1, BmOrco, GCaMP6
  EC50: 3 µM
[12]; Mean (-log EC50 ± SE), wild-type BmOR1/Orco
  EC50: 3.02 µM
[12]; bombykal vs cognate bombykol at BmOR1/Orco
  response to non-cognate pheromone, fold smaller than cognate pheromone: ~ 10 fold
[12]; wild-type BmOR1/Orco
  Hill Coefficient (n± SE): 1.41 ± 0.09
[12]; wild-type BmOR1/Orco, ΔF/F at highest ligand concentration
  Max (ΔF/F ± SE): 1.02 ± 0.05 ΔF/F
[13]
  EC50: 0.479 µM
[13]; OR3_V348A
  Hill Coefficient (n± SE): 1.25 ± 0.08
  Max (ΔF/F ± SE): 1.13 ± 0.04 ΔF/F
